Measurements: ChEMBL document CHEMBL5550199, “Rational In Silico Design of Selective TMPRSS6 Peptidomimetic Inhibitors via Exploitation of the S2 Subpocket” (J Med Chem, 2024)
pIC50, pKi: −log10 of the molar value. In brackets after ≈: the same amount, converted by molar mass. Values belong to the compound of their own block, whether it stands above or below them. Activity calls are given as the source filed them. The calls are words filed in the database; no cut-off is given here.

Experiments:
[1] = molecular target: T1, Transmembrane protease serine 6 (Homo sapiens, UniProt Q8IU80); test: Binding affinity to recombinant human TMPRSS6 using Boc-QAR-AMC as substrate assessed as inhibition constant by fluorescence based analysis
T1 sequence (Q8IU80 whole entry): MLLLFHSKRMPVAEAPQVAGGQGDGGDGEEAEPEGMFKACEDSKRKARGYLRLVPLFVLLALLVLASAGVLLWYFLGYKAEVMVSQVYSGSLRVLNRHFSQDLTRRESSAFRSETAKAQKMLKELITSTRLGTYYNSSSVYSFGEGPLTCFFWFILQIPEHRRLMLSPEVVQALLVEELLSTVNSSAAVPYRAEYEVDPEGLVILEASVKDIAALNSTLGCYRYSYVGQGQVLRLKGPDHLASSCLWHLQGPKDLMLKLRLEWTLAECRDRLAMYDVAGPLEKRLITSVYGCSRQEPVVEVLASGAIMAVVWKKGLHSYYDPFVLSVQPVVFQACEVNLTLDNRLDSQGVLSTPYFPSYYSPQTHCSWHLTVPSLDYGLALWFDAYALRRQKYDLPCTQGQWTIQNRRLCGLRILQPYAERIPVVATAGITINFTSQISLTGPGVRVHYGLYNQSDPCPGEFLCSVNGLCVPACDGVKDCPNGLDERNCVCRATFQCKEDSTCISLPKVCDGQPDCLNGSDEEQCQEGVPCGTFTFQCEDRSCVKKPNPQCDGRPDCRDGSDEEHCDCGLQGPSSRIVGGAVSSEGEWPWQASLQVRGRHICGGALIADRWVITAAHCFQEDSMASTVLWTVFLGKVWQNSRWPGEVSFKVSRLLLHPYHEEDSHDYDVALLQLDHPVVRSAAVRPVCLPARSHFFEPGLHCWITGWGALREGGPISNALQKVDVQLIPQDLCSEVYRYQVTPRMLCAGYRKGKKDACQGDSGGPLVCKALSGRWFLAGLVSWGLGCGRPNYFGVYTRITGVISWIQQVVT

[2] = molecular target: T2, Suppressor of tumorigenicity 14 protein (Homo sapiens, UniProt Q9Y5Y6); test: Binding affinity to recombinant human Matriptase using Boc-QAR-AMC as substrate assessed as inhibition constant by fluorescence based analysis
T2 sequence (Q9Y5Y6 whole entry): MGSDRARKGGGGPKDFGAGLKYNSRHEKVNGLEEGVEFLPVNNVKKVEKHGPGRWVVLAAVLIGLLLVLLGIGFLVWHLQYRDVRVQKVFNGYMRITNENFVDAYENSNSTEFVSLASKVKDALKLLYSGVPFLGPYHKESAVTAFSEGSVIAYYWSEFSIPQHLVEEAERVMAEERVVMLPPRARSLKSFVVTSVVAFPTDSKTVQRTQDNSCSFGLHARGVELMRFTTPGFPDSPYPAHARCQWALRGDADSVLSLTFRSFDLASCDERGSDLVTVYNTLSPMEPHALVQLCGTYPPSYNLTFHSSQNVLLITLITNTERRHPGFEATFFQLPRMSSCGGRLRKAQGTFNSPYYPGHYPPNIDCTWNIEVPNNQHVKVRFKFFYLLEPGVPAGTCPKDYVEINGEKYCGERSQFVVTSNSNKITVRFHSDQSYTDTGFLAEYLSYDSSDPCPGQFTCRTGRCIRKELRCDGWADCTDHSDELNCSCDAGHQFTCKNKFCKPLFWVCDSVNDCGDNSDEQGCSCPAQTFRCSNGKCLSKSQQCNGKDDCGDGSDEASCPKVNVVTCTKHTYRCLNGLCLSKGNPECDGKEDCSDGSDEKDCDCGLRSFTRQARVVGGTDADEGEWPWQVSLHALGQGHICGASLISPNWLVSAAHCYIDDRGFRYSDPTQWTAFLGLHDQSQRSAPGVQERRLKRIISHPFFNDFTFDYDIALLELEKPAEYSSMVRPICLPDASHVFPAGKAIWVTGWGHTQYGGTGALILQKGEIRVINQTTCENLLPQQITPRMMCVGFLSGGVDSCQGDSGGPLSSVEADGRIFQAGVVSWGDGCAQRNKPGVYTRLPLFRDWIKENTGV

Homo sapiens [3] = organism: Homo sapiens; test: Selectivity index, ratio of Ki for binding affinity to recombinant human Matriptase using Boc-QAR-AMC as substrate assessed as inhibition constant by fluorescence based analysis to Ki for binding affinity to recombinant human TMPRSS6 using Boc-QAR-AMC as substrate assessed as inhibition constant by fluorescence based analysis
[4] = Cytotoxicity against HEK cells assessed as reduction in cell viability measured for 24 hrs by celltiter-glo 2.0 assay; assay type: toxicity, cell-based; conditions: human
[5] = molecular target: T2, Suppressor of tumorigenicity 14 protein; test: Mixed inhibition of recombinant human Matriptase using Boc-QAR-AMC as substrate assessed as inhibition constant by fluorescence based analysis
[6] = molecular target: T1, Transmembrane protease serine 6; test: Competitive tight binding inhibition of recombinant human TMPRSS6 using Boc-QAR-AMC as substrate assessed as inhibition constant by fluorescence based analysis
Homo sapiens [7] = organism: Homo sapiens; test: Selectivity index, ratio of Ki for mixed inhibition of recombinant human Matriptase using Boc-QAR-AMC as substrate assessed as inhibition constant by fluorescence based analysis to Ki for competitive tight binding inhibition of recombinant human TMPRSS6 using Boc-QAR-AMC as substrate assessed as inhibition constant by fluorescence based analysis
Prothrombin = Prothrombin (Homo sapiens, UniProt P00734); test: Inhibition of recombinant human thrombin using Boc-QAR-AMC as substrate assessed as inhibition constant by fluorescence based analysis
Coagulation factor X = Coagulation factor X (Homo sapiens, UniProt P00742); test: Inhibition of recombinant human FXA using Boc-QAR-AMC as substrate assessed as inhibition constant by fluorescence based analysis
Furin = Furin (Homo sapiens, UniProt P09958); test: Inhibition of recombinant human furin using Boc-RVRR-AMC as substrate assessed as inhibition constant by fluorescence based analysis
[8] = molecular target: T1, Transmembrane protease serine 6; test: Inhibition of human TMPRSS6 transfected in HEK293SL cells using Boc-QAR-AMC as substrate measured for 24 hrs; assay type: cell-based
[9] = molecular target: T2, Suppressor of tumorigenicity 14 protein; test: Inhibition of human Matriptase transfected in HEK293SL cells using Boc-QAR-AMC as substrate measured for 24 hrs; assay type: cell-based
Homo sapiens [10] = organism: Homo sapiens; test: Selectivity index, ratio of IC50 for inhibition of human Matriptase transfected in HEK293SL cells using Boc-QAR-AMC as substrate to IC50 for inhibition of human TMPRSS6 transfected in HEK293SL cells using Boc-QAR-AMC as substrate; assay type: cell-based
[11] = Solubility of compound in PBS at pH 7.4 measured for 90 mins by UPLC analysis; assay type: physicochemical; conditions: buffer, pH 7.4, 1.5 h
[12] = Stability in Sprague-Dawley rat plasma assessed as parent compound remaining at 24 hrs by UPLC-MS analysis; assay type: ADME, cell-free
[13] = Metabolic stability in Sprague-Dawley rat microsome assessed as half life measured for 120 mins in presence of NADPH by UPLC-MS analysis; assay type: ADME; conditions: microsomes, 2 h
[14] = Metabolic stability in Sprague-Dawley rat microsome assessed as intrinsic clearance measured for 120 mins in presence of NADPH by UPLC-MS analysis; assay type: ADME; conditions: microsomes, 2 h
[15] = Apparent Permeability of compound in PBS buffer at pH 7.4 incubated for 17 hrs by PAMPA assay; assay type: ADME; conditions: pH 7.4, 17 h
[16] = molecular target: T3, Transmembrane protease serine 6 (Homo sapiens) (UniProt Q8IU80); test: Inhibition of recombinant human TMPRSS6 at 100 nM by Michaelis-Menten analysis relative to control
T3 sequence (whole entry): T1 sequence (Q8IU80 whole entry)

[17] = molecular target: T4, Suppressor of tumorigenicity 14 protein (Homo sapiens) (UniProt Q9Y5Y6); test: Inhibition of recombinant human Matriptase at 100 nM by Michaelis-Menten analysis relative to control
T4 sequence (whole entry): T2 sequence (Q9Y5Y6 whole entry)

Caco-2 = test: Disruption of epithelial integrity in human Caco-2 cells assessed as change in TEER modulation after 8 days; assay type: functional, cell-based; conditions: Caco-2, 192 h

Sequence of Coagulation factor X (P00742 41-179 limits assumed): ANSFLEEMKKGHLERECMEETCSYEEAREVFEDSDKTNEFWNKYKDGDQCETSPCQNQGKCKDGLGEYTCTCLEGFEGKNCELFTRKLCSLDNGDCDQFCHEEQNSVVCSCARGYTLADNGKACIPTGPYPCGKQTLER
Sequence of Coagulation factor X (P00742 235-488 limits assumed): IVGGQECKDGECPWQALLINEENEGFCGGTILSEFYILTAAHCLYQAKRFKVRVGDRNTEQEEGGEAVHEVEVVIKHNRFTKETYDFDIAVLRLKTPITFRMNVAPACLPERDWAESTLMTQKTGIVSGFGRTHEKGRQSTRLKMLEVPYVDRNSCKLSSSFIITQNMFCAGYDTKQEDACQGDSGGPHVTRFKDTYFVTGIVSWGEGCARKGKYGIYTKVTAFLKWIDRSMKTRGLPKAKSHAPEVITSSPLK
Sequence of Furin (P09958 whole entry): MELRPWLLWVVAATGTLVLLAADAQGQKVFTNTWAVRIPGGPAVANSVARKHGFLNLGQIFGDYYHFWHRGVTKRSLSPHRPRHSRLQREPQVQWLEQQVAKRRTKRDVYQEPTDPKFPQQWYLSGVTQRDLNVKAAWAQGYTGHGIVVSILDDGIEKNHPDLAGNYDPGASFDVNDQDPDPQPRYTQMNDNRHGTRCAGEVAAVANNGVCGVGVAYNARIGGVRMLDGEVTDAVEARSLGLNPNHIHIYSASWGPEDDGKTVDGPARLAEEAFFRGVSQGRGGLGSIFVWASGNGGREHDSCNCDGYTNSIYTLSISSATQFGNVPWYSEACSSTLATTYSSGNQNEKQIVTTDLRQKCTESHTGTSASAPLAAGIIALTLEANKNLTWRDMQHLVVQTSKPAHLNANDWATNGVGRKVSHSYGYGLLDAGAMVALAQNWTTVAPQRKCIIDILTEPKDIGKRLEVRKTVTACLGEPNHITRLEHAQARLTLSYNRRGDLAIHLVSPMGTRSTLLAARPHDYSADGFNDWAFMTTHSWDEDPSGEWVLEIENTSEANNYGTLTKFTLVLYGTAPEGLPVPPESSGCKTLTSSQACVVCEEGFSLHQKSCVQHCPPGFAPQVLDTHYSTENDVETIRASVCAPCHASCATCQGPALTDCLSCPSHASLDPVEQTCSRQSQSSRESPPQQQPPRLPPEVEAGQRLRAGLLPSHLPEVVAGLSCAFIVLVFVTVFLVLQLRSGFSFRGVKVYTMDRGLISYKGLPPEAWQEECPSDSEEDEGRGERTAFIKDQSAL

pKi [1]: 8.43 | pKi [2]: 7.34 | Ratio Ki (Homo sapiens [3]): 12
Compound: N=C(N)NCCC[C@H](NC(=O)[C@H](Cc1cccc2ccccc12)NC(=O)[C@H](Cc1cscn1)NC(=O)CCc1ccccc1)C(=O)c1nc2ccccc2s1
Activity [4]: Non-Toxic

pKi [1]: 8.92 | pKi [2]: 7.95 | Ratio Ki (Homo sapiens [3]): 9.4
Compound: CC[C@H](C)[C@H](NC(=O)[C@H](Cc1cscn1)NC(=O)CCc1ccccc1)C(=O)N[C@@H](CCCNC(=N)N)C(=O)c1nc2ccccc2s1

pKi [1]: 8.47 | pKi [2]: 7.00 | Ratio Ki (Homo sapiens [3]): 29 | pKi [5]: 7.00 | pKi [6]: 8.28 | Ratio Ki (Homo sapiens [7]): 19 | pKi (Prothrombin): 6.92 | pKi (Coagulation factor X): < 5.00 | pKi (Furin): < 5.00 | pIC50 [8]: 7.66 | pIC50 [9]: 6.45 | solubility [11]: 158 µM (≈ 113 µg/mL) | Stability [12]: 65% | t1/2 [13]: > 2 h | CLH [14]: 1.12 µL/min/mg | Papp [15]: 0.017 10^-6 cm/s
Compound: N=C(N)NCCC[C@H](NC(=O)[C@@H](NC(=O)[C@H](Cc1cscn1)NC(=O)CCc1ccccc1)C1CCCCC1)C(=O)c1nc2ccccc2s1
Activity [4]: Non-Toxic | Ratio IC50 (Homo sapiens [10]): 16

inhibition [16]: 20% | inhibition [17]: 20%
Compound: CCC[C@H](NC(=O)[C@H](Cc1cscn1)NC(=O)CCc1ccccc1)C(=O)N[C@@H](CCCNC(=N)N)C(=O)c1nc2ccccc2s1

pKi [1]: 8.85 | pKi [2]: 8.06 | Ratio Ki (Homo sapiens [3]): 6.3
Compound: CC[C@@H](C)[C@H](NC(=O)[C@H](Cc1cscn1)NC(=O)CCc1ccccc1)C(=O)N[C@@H](CCCNC(=N)N)C(=O)c1nc2ccccc2s1

pKi [1]: 8.10 | pKi [2]: 7.28 | Ratio Ki (Homo sapiens [3]): 6.7
Compound: N=C(N)NCCC[C@H](NC(=O)[C@H](Cc1ccc2ccccc2c1)NC(=O)[C@H](Cc1cscn1)NC(=O)CCc1ccccc1)C(=O)c1nc2ccccc2s1

inhibition [16]: 20% | inhibition [17]: 20%
Compound: CC[C@H](NC(=O)[C@H](Cc1cscn1)NC(=O)CCc1ccccc1)C(=O)N[C@@H](CCCNC(=N)N)C(=O)c1nc2ccccc2s1

pKi [1]: 7.90 | pKi [2]: 7.47 | Ratio Ki (Homo sapiens [3]): 2.6
Compound: N=C(N)NCCC[C@H](NC(=O)[C@@H](NC(=O)[C@H](Cc1cscn1)NC(=O)CCc1ccccc1)c1ccccc1)C(=O)c1nc2ccccc2s1

pKi [1]: 8.25 | pKi [2]: 7.57 | Ratio Ki (Homo sapiens [3]): 4.8
Compound: N=C(N)NCCC[C@H](NC(=O)[C@H](Cc1ccc(OCc2ccccc2)cc1)NC(=O)[C@H](Cc1cscn1)NC(=O)CCc1ccccc1)C(=O)c1nc2ccccc2s1

pKi [1]: 8.34 | pKi [2]: 7.29 | Ratio Ki (Homo sapiens [3]): 11
Compound: CC(C)(C)C[C@H](NC(=O)[C@H](Cc1cscn1)NC(=O)CCc1ccccc1)C(=O)N[C@@H](CCCNC(=N)N)C(=O)c1nc2ccccc2s1

pKi [1]: 8.08 | pKi [2]: 7.91 | Ratio Ki (Homo sapiens [3]): 1.5
Compound: N=C(N)NCCC[C@H](NC(=O)[C@H](CCC1CCCCC1)NC(=O)[C@H](Cc1cscn1)NC(=O)CCc1ccccc1)C(=O)c1nc2ccccc2s1

pKi [1]: 8.66 | pKi [2]: 8.48 | Ratio Ki (Homo sapiens [3]): 1.5
Compound: N=C(N)NCCC[C@H](NC(=O)[C@H](CCc1ccccc1)NC(=O)[C@H](Cc1cscn1)NC(=O)CCc1ccccc1)C(=O)c1nc2ccccc2s1

pKi [5]: 6.21 | pKi [6]: 8.28 | Ratio Ki (Homo sapiens [7]): 119 | pKi (Prothrombin): 6.40 | pKi (Coagulation factor X): < 5.00 | pKi (Furin): < 5.00 | pIC50 [8]: 6.48 | pIC50 [9]: 5.22 | Stability [12]: 100% | t1/2 [13]: > 2 h | CLH [14]: 1.4 µL/min/mg | Papp [15]: 0.01 10^-6 cm/s | pIC50 (Caco-2): 5.21
Compound: N=C(N)NCCC[C@H](NC(=O)[C@@H](NC(=O)[C@H](CCc1ccccc1)NC(=O)CCc1ccccc1)C1CCCCC1)C(=O)c1nc2ccccc2s1
Ratio IC50 (Homo sapiens [10]): 18

inhibition [16]: inactive | inhibition [17]: inactive
Compound: N=C(N)NCCC[C@H](NC(=O)[C@H](CC12CC3CC(CC(C3)C1)C2)NC(=O)[C@H](Cc1cscn1)NC(=O)CCc1ccccc1)C(=O)c1nc2ccccc2s1

pKi [1]: 8.82 | pKi [2]: 8.30 | Ratio Ki (Homo sapiens [3]): 3.3
Compound: CC(C)C[C@H](NC(=O)[C@H](Cc1cscn1)NC(=O)CCc1ccccc1)C(=O)N[C@@H](CCCNC(=N)N)C(=O)c1nc2ccccc2s1

pKi [1]: 8.41 | pKi [2]: 8.04 | Ratio Ki (Homo sapiens [3]): 2.3
Compound: N=C(N)NCCC[C@H](NC(=O)[C@H](CC1CCCCC1)NC(=O)[C@H](Cc1cscn1)NC(=O)CCc1ccccc1)C(=O)c1nc2ccccc2s1

inhibition [16]: inactive | inhibition [17]: inactive
Compound: N=C(N)NCCC[C@H](NC(=O)[C@H](Cc1ccc(C(=O)c2ccccc2)cc1)NC(=O)[C@H](Cc1cscn1)NC(=O)CCc1ccccc1)C(=O)c1nc2ccccc2s1

pKi [1]: 8.85 | pKi [2]: 8.39 | Ratio Ki (Homo sapiens [3]): 2.9
Compound: N=C(N)NCCC[C@H](NC(=O)[C@H](Cc1ccccc1)NC(=O)[C@H](Cc1cscn1)NC(=O)CCc1ccccc1)C(=O)c1nc2ccccc2s1

inhibition [16]: 20% | inhibition [17]: 20%
Compound: CCCC[C@H](NC(=O)[C@H](Cc1cscn1)NC(=O)CCc1ccccc1)C(=O)N[C@@H](CCCNC(=N)N)C(=O)c1nc2ccccc2s1
